This note sets out measurements from patent US20140113931A1, “SUBSTITUTED PICOLINAMIDE KINASE INHIBITORS” (Portola Pharmaceuticals, Inc., priority 2012, published 2014).

For orientation: pIC50 means the IC50 on a negative log10 scale, so that one unit is a factor of ten.

SMILES strings stand for the structures. pIC50: −log10 of the molar value.

The target of this assay is T1, full length active recombinant SYK enzyme (Homo sapiens, UniProt P43405).
T1 construct: full length active recombinant SYK enzyme (Millipore, CA); purchased Millipore, CA
Put plainly: Inhibition of Syk tyrosine phosphorylation activity (LANCE TR-FRET kinase assay). The class given is biochemical. The following applies: 1 nM active SYK enzyme, 550 nM SYK-substrate, 100 μM ATP, 1 hour at room temperature. As for the experimental part: The in vitro and in vivo human Syk activities of the inventive compounds can be determined by various procedures known in the art, such as a test for their ability to inhibit the activity of human plasma Syk. […] The IC50 value is the concentration (in nM) of the compound required to provide 50% inhibition of human Syk proteolytic activity.
An in vitro assay for detecting and measuring inhibition activity against Syk is as follows:
SYK tyrosine phosphorylation activity is measured using the LANCE™ Technology developed by Perkin Elmer Life and Analytical Sciences (Boston, Mass.). LANCE™ refers to homogeneous time resolved fluorometry applications using techniques such as time-resolved fluorescence resonance energy transfer assay (TR-FRET) (see generally for procedures in Perkin Elmer Application Note—How to Optimize a Tyrosine Kinase Assay Using Time Resolved Fluorescence-Based LANCE Detection, wwww.perkinelmer.com/lifesciences). The assay principle involves detection of a phosphorylated substrate using energy transfer from a phosphospecific europium-labeled antibody to streptavidin-allophycocyanin as an acceptor.
Molecules are reconstituted in 30% DMSO and serially diluted 1:3 with the final dilution containing DMSO in the absence of the candidate molecule. The final DMSO concentration in the assay is 3%. Kinase assays are performed as a two part reaction. The first reaction is a kinase reaction and which comprises of a candidate molecule, full length active recombinant SYK enzyme (Millipore, CA) and biotin-labeled SYK-specific substrate biotin-DEEDYESP-OH. The second reaction involves termination of the kinase reaction and the simultaneous addition of the detection reagents-europium-labeled anti-phosphotyrosine reagent (Eu-W1024-PY100, Perkin Elmer, Boston, Mass.) and Streptavidin-Allophycocyanin detection reagent (SA-APC, Prozyme, CA). The kinase reaction is performed in a black U-bottom 96-well microtitre plate. The final reaction volume is 50 μL and contains a final concentration of 1 nM active SYK enzyme, 550 nM SYK-substrate, and 100 μM ATP diluted in a buffer containing 50 mM Tris pH 7.5, 5 mM MgCl2, and 1 mM DTT. The reaction is allowed to proceed for 1 hour at room temperature. The quench buffer contains 100 mM Tris pH 7.5, 300 mM NaCl2, 20 mM EDTA, 0.02% Brij35, and 0.5% BSA. The detection reagents are added to the reaction mixture at the following dilutions-1:500 for Eu-W1024-PY100 and 1:250 for SA-APC. The kinase reaction is terminated by the addition of 50 μL quench buffer containing the detection reagents. The detection is allowed to proceed for 1 hr at room temperature. Detection of the phosphorlated substrate in the absence and presence of inhibitors is measured in the TR-FRET instrument, Analyst HT (Molecular Probes, Sunnyvale, Calif.) and the condition for measurements are set up using CriterionHost Release 2.0 (Molecular Probes, Sunnyvale, Calif.). The settings used are a follows: excitation 360 nm, emission 665-7.5 nm, beam splitter 350 nm 50/50, flash 100 pulses, delay 60 us, integration 400 us, z-height 2 mm. Inhibition of SYK-tyrosine kinase activity is calculated as the maximum response observed in the presence of inhibitor, compared to that in the absence of inhibitor. IC50s were derived by non-linear regression analysis.
On the technique in general: TR-FRET usually uses a lanthanide donor and a delayed reading to cut background.
Take `Cc1cc(Nc2cc(NC3(C(N)=O)CC3)cnc2C(N)=O)sn1` [Example 32, 5-(1-carbamoylcyclopropylamino)-3-(3-methylisothiazol-5-ylamino)picolinamide]: the pIC50 was 8.00 to 9.00.

With `NC(=O)c1ncc(N[C@@H]2CCCC[C@@H]2N)cc1Nc1ccc2cnccc2c1` [Example 12, 5-((1R,2S)-2-aminocyclohexylamino)-3-(isoquinolin-6-ylamino)picolinamide], the negative-log IC50 (pIC50) was 7.00 to 8.00.

Consider `NC(=O)c1ncc(N[C@@H]2CCCC[C@@H]2N)cc1Nc1cccc(-n2nccn2)c1` [Example 6, 3-(3-(2H-1,2,3-triazol-2-yl)phenylamino)-5-((1R,2S)-2-aminocyclohexylamino)picolinamide], for which the pIC50 was 7.00 to 8.00.

On to `CC[C@@H](Nc1cnc(C(N)=O)c(Nc2cc(C)ns2)c1)C(N)=O` [Example 5, (R)-5-(1-amino-1-oxobutan-2-ylamino)-3-(3-methylisothiazol-5-ylamino)picolinamide], for which the pIC50 was 7.00 to 8.00.

`NC(=O)c1ncc(N[C@@H]2CCOC[C@@H]2N)cc1Nc1cc(-c2ccncc2)no1` [Example 52, 5-((3R,4R)-3-aminotetrahydro-2H-pyran-4-ylamino)-3-(3-(pyridin-4-yl)isoxazol-5-ylamino)picolinamide]: the negative logarithm of the IC50 (pIC50) was 7.00 to 8.00.

`NC(=O)c1ncc(N[C@@H]2CCCC[C@@H]2N)cc1Nc1cccc(-c2ncco2)c1` [Example 55, 5-(((1R,2S)-2-aminocyclohexyl)amino)-3-((3-(oxazol-2-yl)phenyl)amino)picolinamide]: the negative logarithm of the IC50 (pIC50) was 7.00 to 8.00.

On to `CCc1cc(Nc2cc(N[C@@H](C(N)=O)C(C)C)cnc2C(N)=O)sn1` [Example 33, (R)-5-(1-amino-3-methyl-1-oxobutan-2-ylamino)-3-(3-ethylisothiazol-5-ylamino)picolinamide], for which the pIC50 was 7.00 to 8.00.

Regarding `CC(C)C[C@@H](Nc1cnc(C(N)=O)c(Nc2ccc3cnccc3c2)c1)C(N)=O` [Example 17, (R)-5-(1-amino-4-methyl-1-oxopentan-2-ylamino)-3-(isoquinolin-6-ylamino)picolinamide], the pIC50 was 7.00 to 8.00.

On to `Cc1cc(Nc2cc(N[C@@H](C(N)=O)c3ccccc3)cnc2C(N)=O)sn1` [Example 42, (R)-5-(2-amino-2-oxo-1-phenylethylamino)-3-(3-methylisothiazol-5-ylamino)picolinamide], for which the pIC50 was 7.00 to 8.00.

Turning to `NC(=O)c1ncc(N[C@@H]2CCCC(F)(F)[C@@H]2N)cc1Nc1cc(-c2ccccc2)no1` [Example 9, 5-((1R,2R)-2-amino-3,3-difluorocyclohexylamino)-3-(3-phenylisoxazol-5-ylamino)picolinamide], the pIC50 was 6.00 to 7.00.

`Cc1cc(Nc2cc(N[C@H](CC3CCCCC3)C(N)=O)cnc2C(N)=O)sn1` [Example 18, (R)-5-(1-amino-3-cyclohexyl-1-oxopropan-2-ylamino)-3-(3-methylisothiazol-5-ylamino)picolinamide]: the pIC50 was 7.00 to 8.00.

In the case of `CC(C)[C@@H](Nc1cnc(C(N)=O)c(Nc2cc(C3CC3)no2)c1)C(N)=O` [Example 35, (R)-5-(1-amino-3-methyl-1-oxobutan-2-ylamino)-3-(3-cyclopropylisoxazol-5-ylamino)picolinamide], the pIC50 is 7.00 to 8.00.

As to `NC(=O)c1ncc(N[C@@H]2CCCC[C@@H]2N)cc1Nc1ccc2cccnc2c1` [Example 15, 5-((1R,2S)-2-aminocyclohexylamino)-3-(quinolin-7-ylamino)picolinamide], the pIC50 was 7.00 to 8.00.

In the case of `Cc1cc(Nc2cc(N[C@@H]3CCCC(F)(F)[C@@H]3N)cnc2C(N)=O)sn1` [Example 2, 5-((1R,2R)-2-amino-3,3-difluorocyclohexylamino)-3-(3-methylisothiazol-5-ylamino)picolinamide], the pIC50 is 7.00 to 8.00.

Take `Cc1cc(Nc2cc(N[C@H]3CC[C@@H](N)CC3)cnc2C(N)=O)sn1` [Example 26, 5-((1S,4S)-4-aminocyclohexylamino)-3-(3-methylisothiazol-5-ylamino)picolinamide]: the pIC50 is 7.00 to 8.00.

With `NC(=O)c1ncc(N[C@H](CC(F)(F)F)C(N)=O)cc1Nc1ccc2cccnc2c1` [Example 51, (R)-5-(1-amino-4,4,4-trifluoro-1-oxobutan-2-ylamino)-3-(quinolin-7-ylamino)picolinamide], the pIC50 is 8.00 to 9.00.

Regarding `NC(=O)c1ncc(N[C@@H]2CCCC[C@@H]2N)cc1Nc1nc(-c2ccccc2)no1` [Example 29, 5-(((1R,2S)-2-aminocyclohexyl)amino)-3-((3-phenyl-1,2,4-oxadiazol-5-yl)amino)picolinamide], the pIC50 is 7.00 to 8.00.

`CC(C)C[C@@H](Nc1cnc(C(N)=O)c(Nc2nc(-c3ccccc3)no2)c1)C(N)=O` [Example 30, (R)-5-((1-amino-4-methyl-1-oxopentan-2-yl)amino)-3-((3-phenyl-1,2,4-oxadiazol-5-yl)amino)picolinamide]: the pIC50 was 7.00 to 8.00.

With `Cc1cc(Nc2cc(N[C@H](CC3CC3)C(N)=O)cnc2C(N)=O)sn1` [Example 3, (R)-5-(1-amino-3-cyclopropyl-1-oxopropan-2-ylamino)-3-(3-methylisothiazol-5-ylamino)picolinamide], the negative logarithm of the IC50 (pIC50) is 8.00 to 9.00.

For the compound `NC(=O)c1ncc(N[C@@H]2CCCC[C@@H]2N)cc1Nc1cnc2ccccc2c1` [Example 13, 5-((1R,2S)-2-aminocyclohexylamino)-3-(quinolin-3-ylamino)picolinamide], the negative-log IC50 (pIC50) is 6.00 to 7.00.

`CC(C)C[C@@H](Nc1cnc(C(N)=O)c(Nc2cc(-c3ccncc3)no2)c1)C(N)=O` [Example 47, (R)-5-(1-amino-4-methyl-1-oxopentan-2-ylamino)-3-(3-(pyridin-4-yl)isoxazol-5-ylamino)picolinamide]: the pIC50 is 8.00 to 9.00.

Regarding `NC(=O)c1ncc(N[C@@H]2CCCC[C@@H]2N)cc1Nc1cnsc1` [Example 28, 5-((1R,2S)-2-aminocyclohexylamino)-3-(isothiazol-4-ylamino)picolinamide], the pIC50 is 6.00 to 7.00.

For the compound `NC(=O)c1ncc(N[C@@H]2CCCC[C@@H]2N)cc1Nc1cc(-c2cccnc2)no1` [Example 50, 5-((1R,2S)-2-aminocyclohexylamino)-3-(3-(pyridin-3-yl)isoxazol-5-ylamino)picolinamide], the pIC50 was 7.00 to 8.00.
